Experimental data taken from patent publication US12404283B2, “c-MYC mRNA translation modulators and uses thereof in the treatment of cancer” (Anima Biotech Inc., priority 2022, dated 2025).
Structures can show the parent of a compound that is named as a salt.

test system: c-Myc; test: c-Myc immunofluorescence assay; format: cell-based, human; conditions: A549 cells, 24 hours treatment, anti-c-Myc immunofluorescence
Method in brief: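 High-content imaging (20×) of PFA-fixed A549 cells immunostained for c-Myc with DAPI nuclei, after 24 h compound treatment at increasing concentrations. Per-cell c-Myc signal in identified cell regions was plotted against dose and fitted by logistic regression to give EC50.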

Row | SMILES | Myc Efficacy (−LogEC50)
1 | CCN(CC)CCCNC(=O)c1ccc2c(c1)sc1nc(-c3ccc(C(C)C)cc3)cn12 [compound 136, N-(3-(diethylamino)propyl)-2-(4-isopropylphenyl)benzo[d] imidazo[2,1-b]thiazole-7-carboxamide formate] | ++ (++ ≥5 and <6)
2 | Cc1cccc(-c2cn3c(n2)sc2cc(C(=O)NCCCN4CCC(F)CC4)ccc23)c1 [compound 137, N-(3-(4-fluoropiperidin-1-yl)propyl)-2-(m-tolyl)benzo[d]imidazo[2,1-b]thiazole-7-carboxamide] | ++ (++ ≥5 and <6)
3 | Cc1cccc(-c2cn3c(n2)sc2cc(C(=O)N[C@H]4C[C@@H](N5CCCCC5)C4)ccc23)c1 [compound 138, N-((1s,3s)-3-(piperidin-1-yl)cyclobutyl)-2-(m-tolyl)benzo[d]imidazo[2,1-b]thiazole-7-carboxamide] | ++ (++ ≥5 and <6)
4 | Cc1cccc(-c2cn3c(n2)sc2cc(C(=O)NCCCC4CCOCC4)ccc23)c1 [compound 139, N-(3-(tetrahydro-2H-pyran-4-yl)propyl)-2-(m-tolyl)benzo[d]imidazo[2,1-b]thiazole-7-carboxamide] | + (+ >3 and <5)
5 | Cc1cccc(-c2cn3c(n2)sc2cc(C(=O)NC4CCNCC4)ccc23)c1 [compound 140, N-(piperidin-4-yl)-2-(m-tolyl)benzo[d]imidazo[2,1-b]thiazole-7-carboxamide] | ++ (++ ≥5 and <6)
6 | Cc1cccc(-c2cn3c(n2)sc2cc(C(=O)N4CCNCC4)ccc23)c1 [compound 141, piperazin-1-yl(2-(m-tolyl)benzo[d]imidazo[2,1-b]thiazol-7-yl)methanone] | + (+ >3 and <5)
7 | CCN(CC)CCCNC(=O)c1ccc2c(c1)sc1nc(-c3ccc(OC)cc3)cn12 [compound 142, N-(3-(diethylamino)propyl)-2-(4-methoxyphenyl)benzo[d] imidazo[2,1-b]thiazole-7-carboxamide] | ++ (++ ≥5 and <6)
8 | CCN(CC)CCCNC(=O)c1ccc2c(c1)sc1nc(-c3cccc(C)c3F)cn12 [compound 143, N-(3-(diethylamino)propyl)-2-(2-fluoro-3-methylphenyl)benzo[d] imidazo[2,1-b]thiazole-7-carboxamide] | ++ (++ ≥5 and <6)
9 | CCN(CC)CCCNC(=O)c1ccc2c(c1)sc1nc(-c3cc(C)ccc3F)cn12 [compound 144, N-(3-(diethylamino)propyl)-2-(2-fluoro-5-methylphenyl)benzo[d] imidazo[2,1-b]thiazole-7-carboxamide] | + (+ >3 and <5)
10 | CCN(CC)CCCNC(=O)c1ccc2c(c1)sc1nc(-c3cccc(C#N)c3)cn12 [compound 145, 2-(3-cyanophenyl)-N-(3-(diethylamino)propyl)benzo [d]imidazo[2,1-b]thiazole-7-carboxamide] | ++ (++ ≥5 and <6)
11 | Cc1cccc(-c2cn3c(n2)sc2cc(C(=O)NCCCN4CCCC4)ccc23)c1 [compound 149, N-(3-(pyrrolidin-1-yl)propyl)-2-(m-tolyl)benzo[d]imidazo[2,1-b]thiazole-7-carboxamide] | ++ (++ ≥5 and <6)
12 | Cc1cccc(-c2cn3c(n2)sc2cc(C(=O)NCCCN4CCCC4=O)ccc23)c1 [compound 150, N-(3-(2-oxopyrrolidin-1-yl)propyl)-2-(m-tolyl)benzo[d]imidazo[2,1-b]thiazole-7-carboxamide] | + (+ >3 and <5)
13 | Cc1cccc(-c2cn3c(n2)sc2cc(C(=O)N[C@H]4C[C@H](N5CCCCC5)C4)ccc23)c1 [compound 151, N-((1r,3r)-3-(piperidin-1-yl)cyclobutyl)-2-(m-tolyl)benzo[d]imidazo[2,1-b]thiazole-7-carboxamide] | + (+ >3 and <5)
14 | CCN(CC)CCCNC(=O)c1ccc2c(c1)sc1nc(-c3cccc(OC)c3)cn12 [compound 152, N-(3-(diethylamino)propyl)-2-(3-methoxyphenyl)benzo[d] imidazo[2,1-b]thiazole-7-carboxamide] | ++ (++ ≥5 and <6)
15 | CCN(CC)CCCNC(=O)c1ccc2c(c1)sc1nc(-c3cccc(-c4ccccc4)c3)cn12 [compound 153, 2-([1,1′-biphenyl]-3-yl)-N-(3-(diethylamino)propyl)benzo [d]imidazo[2,1-b]thiazole-7-carboxamide] | + (+ >3 and <5)
16 | CCN(CC)CCCNC(=O)c1ccc2c(c1)sc1nc(-c3ccc(C(=O)N(C)C)cc3)cn12 [compound 154, N-(3-(diethylamino)propyl)-2-(4-(dimethylcarbamoyl)phenyl) benzo[d]imidazo[2,1-b]thiazole-7-carboxamide formate] | + (+ >3 and <5)
17 | CCNCCCNC(=O)c1ccc2c(c1)sc1nc(-c3cccc(C)c3)cn12 [compound 155] | ++ (++ ≥5 and <6)
18 | Cc1cccc(-c2cn3c(n2)sc2cc(C(=O)NCCC4CCCN4)ccc23)c1 (centres unmarked) [compound 156, N-(2-(pyrrolidin-2-yl)ethyl)-2-(m-tolyl)benzo[d]imidazo[2,1-b]thiazole-7-carboxamide] | ++ (++ ≥5 and <6)

Row | SMILES | Myc Efficacy (−LogEC50)
19 | CN[C@H]1C[C@@H](NC(=O)c2ccc3c(c2)sc2nc(-c4cccc(C)c4)cn23)C1 [compound 157, N-((1s,3s)-3-(methylamino)cyclobutyl)-2-(m-tolyl)benzo[d]imidazo[2,1-b]thiazole-7-carboxamide formate] | ++ (++ ≥5 and <6)
20 | CN[C@H]1C[C@H](NC(=O)c2ccc3c(c2)sc2nc(-c4cccc(C)c4)cn23)C1 [compound 158, N-((1r,3r)-3-(methylamino)cyclobutyl)-2-(m-tolyl)benzo[d]imidazo[2,1-b]thiazole-7-carboxamide formate] | ++ (++ ≥5 and <6)
21 | Cc1cccc(-c2cn3c(n2)sc2cc(C(=O)NCCC(=O)N4CCCC4)ccc23)c1 [compound 159, N-(3-oxo-3-(pyrrolidin-1-yl)propyl)-2-(m-tolyl)benzo[d]imidazo[2,1-b]thiazole-7-carboxamide] | + (+ >3 and <5)
22 | CCN(CC)CCCNC(=O)c1ccc2c(c1)sc1nc(-c3ccc(C#N)cc3)cn12 [compound 160, 2-(4-cyanophenyl)-N-(3-(diethylamino)propyl)benzo [d]imidazo[2,1-b]thiazole-7-carboxamide] | + (+ >3 and <5)
23 | CCN(CC)CCCNC(=O)c1ccc2c(c1)sc1nc(-c3ccncc3)cn12 [compound 161, N-(3-(diethylamino)propyl)-2-(pyridin-4-yl)benzo[d]imidazo[2,1-b]thiazole-7-carboxamide] | +++ (+++ ≥6)
24 | CCN(CC)CCCNC(=O)c1ccc2c(c1)sc1nc(N3CCOCC3)cn12 [compound 162, N-(3-(diethylamino)propyl)-2-morpholinobenzo[d]imidazo [2,1-b]thiazole-7-carboxamide] | − (− ≤3)
25 | CCN(CC)CCCNC(=O)c1ccc2c(c1)sc1nc(-c3ccc(CN)cc3)cn12 [compound 163, 2-(4-(aminomethyl)phenyl)-N-(3-(diethylamino)propyl)benzo [d]imidazo[2,1-b]thiazole-7-carboxamide] | +++ (+++ ≥6)
26 | CCN(CC)CCCNC(=O)c1ccc2c(c1)sc1nc(-c3ccc(NC)cc3)cn12 [compound 164, N-(3-(diethylamino)propyl)-2-(4-(methylamino)phenyl)benzo [d]imidazo[2,1-b]thiazole-7-carboxamide] | +++ (+++ ≥6)
27 | CCN(CC)CCCNC(=O)c1ccc2c(c1)sc1nc(-c3cncc(C)c3)cn12 [compound 165, N-(3-(diethylamino)propyl)-2-(5-methylpyridin-3-yl)benzo[d]imidazo[2,1-b]thiazole-7-carboxamide] | + (+ >3 and <5)
28 | CCN(CC)CCCNC(=O)c1ccc2c(c1)sc1nc(-c3ccc(C(=O)NC)cc3F)cn12 [compound 166, N-(3-(diethylamino)propyl)-2-(2-fluoro-4-(methylcarbamoyl)phenyl) benzo[d]imidazo[2,1-b]thiazole-7-carboxamide] | +++ (+++ ≥6)
29 | CCN(CC)CCCNC(=O)c1ccc2c(c1)sc1nc(-c3cccc(C(=O)NC)c3)cn12 [compound 167, N-(3-(diethylamino)propyl)-2-(3-(methylcarbamoyl)phenyl) benzo[d]imidazo[2,1-b]thiazole-7-carboxamide] | + (+ >3 and <5)
30 | Cc1cccc(-c2cn3c(n2)sc2cc(NC(=O)C4CCNCC4)ccc23)c1 [compound 168, N-(2-(m-tolyl)benzo[d]imidazo[2,1-b]thiazol-7-yl)piperidine-4-carboxamide] | ++ (++ ≥5 and <6)
31 | CCN(CC)CCCNC(=O)c1ccc2c(c1)sc1nc(-c3cccc(C(C)C)c3)cn12 [compound 169, N-(3-(diethylamino)propyl)-2-(3-isopropylphenyl)benzo[d] imidazo[2,1-b]thiazole-7-carboxamide] | ++ (++ ≥5 and <6)
32 | CCN(CC)CCCNC(=O)c1ccc2c(c1)sc1nc(-c3cccc(N4CCOCC4)c3)cn12 [compound 170, N-(3-(diethylamino)propyl)-2-(3-morpholinophenyl)benzo[d] imidazo[2,1-b]thiazole-7-carboxamide] | ++ (++ ≥5 and <6)
33 | CCN(CC)CCCNC(=O)c1ccc2c(c1)sc1nc(-c3cccc(N4CCCC4)c3)cn12 [compound 171, N-(3-(diethylamino)propyl)-2-(3-(pyrrolidin-1-yl)phenyl)benzo[d]imidazo [2,1-b]thiazole-7-carboxamide] | ++ (++ ≥5 and <6)
34 | CCN(CC)CCCNC(=O)c1ccc2c(c1)sc1nc(-c3ccc(C(=O)O)cc3)cn12 [compound 172, 4-(7-((3-(diethylamino)propyl)carbamoyl)benzo[d]imidazo [2,1-b]thiazol-2-yl)benzoic acid] | − (− ≤3)
35 | CCN(CC)CCCNC(=O)c1ccc2c(c1)sc1nc(-c3ccc(C4COC4)cc3)cn12 [compound 173, N-(3-(diethylamino)propyl)-2-(4-(oxetan-3-yl)phenyl)benzo[d]imidazo [2,1-b]thiazole-7-carboxamide] | ++ (++ ≥5 and <6)
